Reference: US12495798B2, “Nicotinamide compound and herbicidal composition comprising compound” (KOREA RESEARCH INSTITUTE OF CHEMICAL TECHNOLOGY, priority 2019, dated 2025)

Columns and labels:
Assay type in all cases: in vivo
crabgrass [1] = test: Herbicidal activity test against upland field weeds (soil treatment test); set-up: key to Soil treatment herbicidal activity, Crabgrass: 0 (no control); 100 (complete control); details: 50 g ai/ha, scale 0 (no control) to 100 (complete control); for pest or weed control at 50 g/ha: Digitaria sanguinalis
Summary of the method: (§1)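 Weed control scored visually on a 0 (none) to 100 (complete) scale versus untreated pots at 14 or 21 days in greenhouse (30±5 °C, 14 h light). Test compounds, 50 or 75 g a.i./ha in 50% acetone/0.1% Tween-20, hand-sprayed onto soil one day post-sowing.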

cotton = test: Phytotoxicity test for upland field crops (foliar treatment test); set-up: key: 0 (no harm); 9 (complete withered)
Summary of the method: (§2)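 Spray-booth foliar treatment of greenhouse-grown crops at 19˜300 g a.i./ha. Visual crop injury was scored 0–9 against untreated plants at 7 and 14 days.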

rice = test: as above; set-up: key: 0 (no harm); 9 (complete withered)
Summary of the method: as §2

soybean = test: as above; set-up: key: 0 (no harm); 9 (complete withered)
Summary of the method: as §2

corn = test: as above; set-up: key: 0 (no harm); 9 (complete withered)
Summary of the method: as §2

quack grass = test: Herbicidal activity test against upland field weeds (soil treatment test); set-up: key to Soil treatment herbicidal activity, quack grass: 0 (no control); 100 (complete control); details: 50 g ai/ha, scale 0 (no control) to 100 (complete control)
Summary of the method: as §1

fall panicum [2] = test: Herbicidal activity test against upland field weeds (foliar treatment test); details: Panicum dichotomiflorum, 50 g ai/ha, scale 0-100
Summary of the method: (§3)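 Visual 0–100 control ratings relative to untreated plants, taken 14 (or 21) days after spraying foliage at 50 or 75 g a.i./ha. Spray solution: 50% acetone with 0.1% Tween-20; plants kept in greenhouse at 30±5 °C, 14 h light/10 h dark.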

indian jointvetch = test: Herbicidal activity test against upland field weeds (soil treatment test); set-up: key to Soil treatment herbicidal activity, Indian jointvetch: 0 (no control); 100 (complete control); details: 50 g ai/ha, scale 0 (no control) to 100 (complete control)
Summary of the method: as §1

barnyard grass = test: Herbicidal activity test against upland field weeds (foliar treatment test); set-up: key to Foliar treatment herbicidal activity, barnyard grass: 0 (no control); 100 (complete control); details: 50 g ai/ha, scale 0-100; for pest or weed control at 50 g/ha: Echinochloa crus-galli
Summary of the method: as §3

crabgrass [3] = test: as above; details: Digitaria sanguinalis, 50 g ai/ha, scale 0-100
Summary of the method: as §3

black nightshade = test: as above; set-up: key to Foliar treatment herbicidal activity, black nightshade: 0 (no control); 100 (complete control); details: 50 g ai/ha, scale 0-100; for pest or weed control at 50 g/ha: Solanum nigrum
Summary of the method: as §3

fall panicum [4] = test: Herbicidal activity test against upland field weeds (soil treatment test); set-up: key to Soil treatment herbicidal activity, Fall panicum: 0 (no control); 100 (complete control); details: 50 g ai/ha, scale 0 (no control) to 100 (complete control); for pest or weed control at 50 g/ha: Panicum dichotomiflorum
Summary of the method: as §1

sorghum = test: as above; set-up: key to Soil treatment herbicidal activity, Sorghum: 0 (no control); 100 (complete control); details: 50 g ai/ha, scale 0 (no control) to 100 (complete control); for plant injury at 50 g/ha: Sorghum
Summary of the method: as §1

bindweed = test: as above; set-up: key to Soil treatment herbicidal activity, Bindweed: 0 (no control); 100 (complete control); details: 50 g ai/ha, scale 0 (no control) to 100 (complete control)
Summary of the method: as §1

[5] = 50 g ai/ha, Cotton (7 days after treatment)
[6] = 50 g ai/ha, Cotton (14 days after treatment)
[7] = 100 g ai/ha, Cotton (7 days after treatment)
[8] = 100 g ai/ha, Cotton (14 days after treatment)
[9] = 50 g ai/ha, Rice (7 days after treatment)
[10] = 50 g ai/ha, Rice (14 days after treatment)
[11] = 100 g ai/ha, Rice (7 days after treatment)
[12] = 100 g ai/ha, Rice (14 days after treatment)
[13] = 50 g ai/ha, Soybean (7 days after treatment)
[14] = 50 g ai/ha, Soybean (14 days after treatment)
[15] = 100 g ai/ha, Soybean (7 days after treatment)
[16] = 100 g ai/ha, Soybean (14 days after treatment)
[17] = 50 g ai/ha, Corn (7 days after treatment)
[18] = 50 g ai/ha, Corn (14 days after treatment)
[19] = 100 g ai/ha, Corn (7 days after treatment)
[20] = 100 g ai/ha, Corn (14 days after treatment)

Compound	Foliar treatment phytotoxicity, Cotton (cotton; [5])	Foliar treatment phytotoxicity, Cotton (cotton; [6])	Foliar treatment phytotoxicity, Cotton (cotton; [7])	Foliar treatment phytotoxicity, Cotton (cotton; [8])	Foliar treatment phytotoxicity, Rice (rice; [9])	Foliar treatment phytotoxicity, Rice (rice; [10])	Foliar treatment phytotoxicity, Rice (rice; [11])	Foliar treatment phytotoxicity, Rice (rice; [12])	Foliar treatment phytotoxicity, Soybean (soybean; [13])	Foliar treatment phytotoxicity, Soybean (soybean; [14])	Foliar treatment phytotoxicity, Soybean (soybean; [15])	Foliar treatment phytotoxicity, Soybean (soybean; [16])	Foliar treatment phytotoxicity, Corn (corn; [17])	Foliar treatment phytotoxicity, Corn (corn; [18])	Foliar treatment phytotoxicity, Corn (corn; [19])	Foliar treatment phytotoxicity, Corn (corn; [20])	Soil treatment herbicidal activity, quack grass (quack grass)	pest or weed control at 50 g/ha (fall panicum [2]) [%]	pest or weed control at 50 g/ha (barnyard grass) [%]	pest or weed control at 50 g/ha (crabgrass [3]) [%]	also measured
Cn1nnc(COCc2nc(C(F)(F)Cl)ccc2C(=O)Nc2nnnn2C)n1 [Compound No. 2-78, 6-(chlorodifluoromethyl)-N-(1-methyl-1H-tetrazol-5-yl)-2-(((2-methyl-2H-tetrazol-5-yl)methoxy)methyl)nicotinamide]	5	9	6	9	5	4	6	5	5	5	6	6	2	1	3	1	0	70	70	70	Soil treatment herbicidal activity, Crabgrass (crabgrass [1]): 100; pest or weed control at 50 g/ha (indian jointvetch): 95%; pest or weed control at 50 g/ha (black nightshade): 95%; pest or weed control at 50 g/ha (fall panicum [4]): 90%; plant injury at 50 g/ha (sorghum): 50%; pest or weed control at 50 g/ha (bindweed): 40%
Cn1nnc(COCc2nc(C(F)(F)F)ccc2C(=O)Nc2nnnn2C)n1 [Compound No. 2-59, N-(1-methyl-1H-tetrazol-5-yl)-2-(((2-methyl-2H-tetrazol-5-yl)methoxy)methyl)-6-(trifluoromethyl)nicotinamide]	3	8	3	9	3	4	3	6	5	7	5	7	0	2	3	4	–	95	–	98	pest or weed control at 50 g/ha (crabgrass [1]): 98%; pest or weed control at 50 g/ha (quack grass): 20%; Soil treatment herbicidal activity, Indian jointvetch (indian jointvetch): 100; Foliar treatment herbicidal activity, barnyard grass (barnyard grass): 100; Foliar treatment herbicidal activity, black nightshade (black nightshade): 100; Soil treatment herbicidal activity, Fall panicum (fall panicum [4]): 100; Soil treatment herbicidal activity, Sorghum (sorghum): 100; pest or weed control at 50 g/ha (bindweed): 90%
Cn1nnc(COCc2nc(C(F)F)ccc2C(=O)Nc2nnnn2C)n1 [Compound No. 2-84, 6-(difluoromethyl)-N-(1-methyl-1H-tetrazol-5-yl)-2-(((2-methyl-2H-tetrazol-5-yl)methoxy)methyl)nicotinamide]	5	9	5	9	6	7	6	9	6	7	6	8	2	1	3	4	0	90	95	95	pest or weed control at 50 g/ha (crabgrass [1]): 80%; pest or weed control at 50 g/ha (indian jointvetch): 98%; Foliar treatment herbicidal activity, black nightshade (black nightshade): 100; pest or weed control at 50 g/ha (fall panicum [4]): 20%; plant injury at 50 g/ha (sorghum): 20%; pest or weed control at 50 g/ha (bindweed): 40%
Cn1nnc(COCc2nc(C(F)(F)F)ccc2C(=S)Nc2nnnn2C)n1 [Compound No. 2-106, N-(1-methyl-1H-tetrazol-5-yl)-2-(((2-methyl-2H-tetrazol-5-yl)methoxy)methyl)-6-(trifluoromethyl)pyridin-3-carbothioamide]	5	9	5	9	6	7	6	8	5	8	6	8	5	4	6	7	0	70	80	70	Soil treatment herbicidal activity, Crabgrass (crabgrass [1]): 100; Soil treatment herbicidal activity, Indian jointvetch (indian jointvetch): 100; pest or weed control at 50 g/ha (black nightshade): 95%; Soil treatment herbicidal activity, Fall panicum (fall panicum [4]): 100; plant injury at 50 g/ha (sorghum): 70%; pest or weed control at 50 g/ha (bindweed): 98%
Cn1nnnc1COCc1nc(C(F)(F)F)ccc1C(=O)Nc1nnnn1C [Compound No. 1-61, N-(1-methyl-1H-tetrazol-5-yl)-2-(((1-methyl-1H-tetrazol-5-yl)methoxy)methyl)-6-(trifluoromethyl)nicotinamide]	3	6	0	7	4	6	5	6	6	9	0	9	0	0	0	0	0	70	95	95	pest or weed control at 50 g/ha (crabgrass [1]): 40%; Soil treatment herbicidal activity, Indian jointvetch (indian jointvetch): 100; Foliar treatment herbicidal activity, black nightshade (black nightshade): 100; pest or weed control at 50 g/ha (fall panicum [4]): 95%; Soil treatment herbicidal activity, Sorghum (sorghum): 0; Soil treatment herbicidal activity, Bindweed (bindweed): 0
